This passage reports Activity and IC50 results from ChEMBL document CHEMBL4732223, “Prenylated flavonoids from Ficus hirta induces HeLa cells apoptosis via MAPK and AKT signaling pathways” (Bioorg Med Chem Lett, 2021).

The source made the active and inactive calls. No cut-off for these calls is given here.

By IC50 is commonly meant the concentration that gives 50% inhibition.

The nature of test [1]: Induction of apoptotis in human HeLa cells assessed as late apoptotic cells at 30 uM measured after 24 hrs by FITC/propidium iodide staining based flow cytometry (reference value: 2.74 %). Format: functional. Background: A flow cytometer gives signals particle by particle.
Test [2] can be described thus: Induction of apoptotis in human HeLa cells assessed as live cells at 40 uM measured after 24 hrs by FITC/propidium iodide staining based flow cytometry (reference value: 89.2 %). Format: functional.
Test [3] concerns HeLa. Description: Activation of MAPK signaling pathway in human HeLa cells assessed as increase in phosphorylated JNK protein level at 30 uM measured after 24 hrs by Western blot analysis. Format: cell-based. Particulars: filed as activator. (In western blotting, separated proteins are transferred to a membrane and probed.)
Test [4] is described as follows: Induction of apoptotis in human HeLa cells assessed as late apoptotic cells at 40 uM measured after 24 hrs by FITC/propidium iodide staining based flow cytometry (reference value: 2.74 %). Format: functional.
A short description of test [5]: Induction of apoptotis in human HeLa cells assessed as live cells at 30 uM measured after 24 hrs by FITC/propidium iodide staining based flow cytometry (reference value: 89.2 %). Format: functional.
A further test relates to NCI-H460. The test is described as follows: Cytotoxicity against human NCI-H460 cells assessed as inhibition of cell proliferation by MTT assay. Format: functional, cell-based. (Tetrazolium dyes change colour on reduction, which living cells bring about.)
Test [6] deals with HeLa. Description: Activation of MAPK signaling pathway in human HeLa cells assessed as reduction in phosphorylated ERK expression measured after 24 hrs by Western blot analysis. It is filed as cell-based. The conditions noted are these: filed as activator, dose 10-30 µM.
Test [7] can be described thus: Induction of apoptotis in human HeLa cells assessed as late apoptotic cells at 10 uM measured after 24 hrs by FITC/propidium iodide staining based flow cytometry (reference value: 2.74 %). It is filed as functional.
A short description of test [8]: Induction of apoptotis in human HeLa cells assessed as early apoptotic cells at 30 uM measured after 24 hrs by FITC/propidium iodide staining based flow cytometry (reference value: 5.46 %). It is filed as functional.
A short description of test [9]: Induction of apoptotis in human HeLa cells assessed as early apoptotic cells at 20 uM measured after 24 hrs by FITC/propidium iodide staining based flow cytometry (reference value: 5.46 %). It is filed as functional.
Test [10] is described as follows: Induction of apoptotis in human HeLa cells assessed as live cells at 10 uM measured after 24 hrs by FITC/propidium iodide staining based flow cytometry (reference value: 89.2 %). It is filed as functional.
A short description of test [11]: Induction of apoptotis in human HeLa cells assessed as necrotic cells at 10 uM measured after 24 hrs by FITC/propidium iodide staining based flow cytometry (reference value: 2.59 %). It is filed as functional.
Test [12] deals with Serine/threonine-protein kinase AKT (Homo sapiens) (UniProt P31751+Q9Y243+P31749). Description: […] of AKT signaling pathway in human HeLa cells assessed as reduction in phosphorylated AKT expression measured after 24 hrs by Western blot analysis. Format: cell-based. The conditions noted are these: dose 10-30 µM.
Sequence of Serine/threonine-protein kinase AKT (Homo sapiens) (P31749 whole entry, looked up): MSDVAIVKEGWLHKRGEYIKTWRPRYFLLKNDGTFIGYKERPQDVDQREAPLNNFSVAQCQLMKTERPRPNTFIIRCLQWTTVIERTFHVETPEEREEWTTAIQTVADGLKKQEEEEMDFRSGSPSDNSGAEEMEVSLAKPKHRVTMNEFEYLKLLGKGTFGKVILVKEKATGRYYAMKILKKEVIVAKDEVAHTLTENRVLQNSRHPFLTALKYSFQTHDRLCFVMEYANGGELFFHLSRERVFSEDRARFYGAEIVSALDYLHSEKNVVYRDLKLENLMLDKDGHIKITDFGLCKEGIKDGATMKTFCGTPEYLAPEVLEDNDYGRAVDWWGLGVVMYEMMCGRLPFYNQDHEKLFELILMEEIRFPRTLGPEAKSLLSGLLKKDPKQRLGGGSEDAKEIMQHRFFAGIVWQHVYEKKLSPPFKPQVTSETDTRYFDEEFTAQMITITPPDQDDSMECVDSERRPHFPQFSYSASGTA
Sequence of Serine/threonine-protein kinase AKT (Homo sapiens) (P31751 whole entry, looked up): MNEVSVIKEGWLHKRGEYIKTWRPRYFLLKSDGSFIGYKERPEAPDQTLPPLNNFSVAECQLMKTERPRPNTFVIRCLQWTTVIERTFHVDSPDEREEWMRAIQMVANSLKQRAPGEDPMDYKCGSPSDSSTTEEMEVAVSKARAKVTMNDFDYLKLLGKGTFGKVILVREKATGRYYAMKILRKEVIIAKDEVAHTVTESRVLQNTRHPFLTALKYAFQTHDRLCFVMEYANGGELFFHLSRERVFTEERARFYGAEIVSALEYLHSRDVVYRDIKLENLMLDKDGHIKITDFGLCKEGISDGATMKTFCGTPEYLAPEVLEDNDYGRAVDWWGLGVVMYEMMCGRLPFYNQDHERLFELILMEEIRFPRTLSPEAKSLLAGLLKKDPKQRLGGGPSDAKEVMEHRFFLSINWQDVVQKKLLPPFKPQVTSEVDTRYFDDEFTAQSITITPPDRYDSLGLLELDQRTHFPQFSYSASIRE
Sequence of Serine/threonine-protein kinase AKT (Homo sapiens) (Q9Y243 whole entry, looked up): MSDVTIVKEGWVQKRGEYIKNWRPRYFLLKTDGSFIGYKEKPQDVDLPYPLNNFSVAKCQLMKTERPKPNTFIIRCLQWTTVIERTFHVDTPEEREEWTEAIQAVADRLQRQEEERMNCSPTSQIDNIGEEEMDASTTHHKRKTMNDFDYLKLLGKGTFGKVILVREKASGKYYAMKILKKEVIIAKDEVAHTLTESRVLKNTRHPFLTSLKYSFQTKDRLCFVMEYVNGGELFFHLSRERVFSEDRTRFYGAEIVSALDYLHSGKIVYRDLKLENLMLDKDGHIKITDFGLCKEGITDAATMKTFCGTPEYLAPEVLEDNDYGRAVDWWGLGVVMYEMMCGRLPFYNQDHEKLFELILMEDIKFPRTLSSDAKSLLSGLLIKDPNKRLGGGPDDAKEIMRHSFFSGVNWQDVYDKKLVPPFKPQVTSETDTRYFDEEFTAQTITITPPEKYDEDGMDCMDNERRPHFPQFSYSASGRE
For test [13], the system named is HeLa. The test is described as follows: Induction of apoptosis in human HeLa cells assessed as increase in PARP cleavage measured after 24 hrs by Western blot analysis. It is filed as functional, cell-based. The conditions noted are these: dose 10-30 µM.
Test [14] in a line: Induction of apoptotis in human HeLa cells assessed as necrotic cells at 40 uM measured after 24 hrs by FITC/propidium iodide staining based flow cytometry (reference value: 2.59 %). It is filed as functional.
Test [15] concerns HeLa. Description: Cytotoxicity against human HeLa cells assessed as inhibition of cell proliferation by MTT assay. It is filed as functional, cell-based.
Test [16] relates to HeLa. The test is described as follows: Activation of MAPK signaling pathway in human HeLa cells assessed as increase in phosphorylated p38 protein level at 30 uM measured after 24 hrs by Western blot analysis. Format: cell-based. The conditions noted are these: filed as activator.
Test [17] can be described thus: Induction of apoptotis in human HeLa cells assessed as necrotic cells at 30 uM measured after 24 hrs by FITC/propidium iodide staining based flow cytometry (reference value: 2.59 %). Format: functional.
Test [18] in a line: Induction of apoptotis in human HeLa cells assessed as early apoptotic cells at 10 uM measured after 24 hrs by FITC/propidium iodide staining based flow cytometry (reference value: 5.46 %). It is filed as functional.
Test [19] can be described thus: Induction of apoptotis in human HeLa cells assessed as early apoptotic cells at 40 uM measured after 24 hrs by FITC/propidium iodide staining based flow cytometry (reference value: 5.46 %). Format: functional.
Test [20] is described as follows: Induction of apoptotis in human HeLa cells assessed as live cells at 20 uM measured after 24 hrs by FITC/propidium iodide staining based flow cytometry (reference value: 89.2 %). Format: functional.
Test [21] can be described thus: Induction of apoptotis in human HeLa cells assessed as necrotic cells at 20 uM measured after 24 hrs by FITC/propidium iodide staining based flow cytometry (reference value: 2.59 %). Format: functional.
The subject of the next test is MCF7. Description: Cytotoxicity against human MCF7 cells assessed as inhibition of cell proliferation by MTT assay. It is filed as functional, cell-based.
The test system of the next test is HepG2. The test is described as follows: Cytotoxicity against human HepG2 cells assessed as inhibition of cell proliferation by MTT assay. It is filed as functional, cell-based.
Test [22] is described as follows: Induction of apoptotis in human HeLa cells assessed as late apoptotic cells at 20 uM measured after 24 hrs by FITC/propidium iodide staining based flow cytometry (reference value: 2.74 %). Format: functional.

On to `CC(C)=CCc1c(O)cc2oc(-c3ccc(O)cc3)cc(=O)c2c1O`, for which the Activity in [1] is 3.4%; in test [2] it was 82.6%; in test [4], 4.28%; in test [5] it was 86.5%; in the test with HeLa [6] it was “Dose-dependent effect”; in [7] it was 4.11%. Besides, the Activity in test [8] was 9.41%; in [9] it was 8.25%; in test [10], 88.2%; in test [11], 0.75%; in test [12], “Dose-dependent effect”; in the test on HeLa [13] it was “Dose-dependent effect”. Also, the Activity in test [14] was determined as 0.63%; in test [17], 0.69%; in test [18], 6.92%; in [19] it was 12.5%; in [20], 87.6%; in test [21], 0.88%. Moreover, in test [22], the Activity came out at 3.23%. The result with HeLa [3] and with HeLa [16] was Active. Further, the IC50 is 38.5 µM with NCI-H460, 28.9 µM with HeLa [15], 32.4 µM in the test on MCF7 and over 40 µM in the test on HepG2.
For the compound `COc1c(CC=C(C)C)cc(C2CC(=O)c3c(O)cc(O)cc3O2)c(CC=C(C)C)c1OC` (racemic), the 50% inhibitory concentration (IC50) with NCI-H460, with HeLa [15], in the test on MCF7 and with HepG2 was over 40 µM in each case.
On to `CC(C)=CCc1cc(-c2cc(=O)c3c(O)cc(O)cc3o2)cc(O)c1O`, for which the IC50 in the test on NCI-H460, in the test on HeLa [15], in the test with MCF7 and in the test with HepG2 was over 40 µM throughout.
As to `CC(C)=CCc1c(O)cc2oc(-c3ccc(O)c(O)c3)cc(=O)c2c1O`, the IC50 in the test with NCI-H460, in the test on HeLa [15], in the test on MCF7 and with HepG2 was over 40 µM in each case.
With `CC(C)=CCc1c(O)cc(O)c2c(=O)cc(-c3ccc(O)cc3)oc12`, the IC50 in the test with NCI-H460, with HeLa [15], with MCF7 and in the test on HepG2 was over 40 µM in each case.
On to `CC(C)=CCc1cc(-c2cc(=O)c3c(O)cc(O)cc3o2)ccc1O`, for which the concentration for half-maximal inhibition (IC50) with NCI-H460, in the test on HeLa [15], with MCF7 and in the test with HepG2 was over 40 µM in each case.
